The values that follow come from paper PMC10384675, “Novel Thiazolidine-2,4-dione-trimethoxybenzene-thiazole Hybrids as Human Topoisomerases Inhibitors” (Pharmaceuticals, 2023).

The target in one experiment is T1, hTopo II (Homo sapiens, UniProt P11388).
T1 construct: purchased TopoGEN, Port Orange, FL
Briefly: hTopo II decatenation assay. The experiment is classed as biochemical. Also on record: key to Topoisomerase Inhibition hTopo II: (+) inhibition; (−) no inhibition; (+/−) partial inhibition. As to the method: The linear kDNA (Figure 4a,b, lanes A), decatenated kDNA (Figure 4a,b, lanes B) and the catenated circles of kDNA (Figure 4a,b, lanes C) were used as markers. A parallel experiment was performed using ellipticine as reference molecule.
(§1) hTopo I relaxation assays were performed by incubating the substrate (supercoiled pHOT1) with the recombinant hTopo I (TopoGEN, Port Orange, FL, USA) and compounds, as indicated in the supplier protocol (TopoGEN, Port Orange, FL, USA), with some revisions. hTopo II decatenation assays were conducted by incubating the kinetoplast DNA substrate (kDNA) with the hTopo II (TopoGEN, Port Orange, FL) and studied compounds, as indicated in the supplier procedures (TopoGEN, Port Orange, FL, USA), with some changes as in [80].
Figure 4 hTopo II decatenation assay. […] The same experiment was performed using ellipticine (c). Lane 1, decatenated kDNA marker; lane 2, linear kDNA marker; lane 3, CTRL (DMSO), lanes 4–5, ellipticine 10 and 50 µM, respectively.

In the next experiment the target is T2, hTopo I (Homo sapiens, UniProt P11387).
T2 construct: purchased TopoGEN, Port Orange, FL, USA
T2 sequence (P11387 1-765): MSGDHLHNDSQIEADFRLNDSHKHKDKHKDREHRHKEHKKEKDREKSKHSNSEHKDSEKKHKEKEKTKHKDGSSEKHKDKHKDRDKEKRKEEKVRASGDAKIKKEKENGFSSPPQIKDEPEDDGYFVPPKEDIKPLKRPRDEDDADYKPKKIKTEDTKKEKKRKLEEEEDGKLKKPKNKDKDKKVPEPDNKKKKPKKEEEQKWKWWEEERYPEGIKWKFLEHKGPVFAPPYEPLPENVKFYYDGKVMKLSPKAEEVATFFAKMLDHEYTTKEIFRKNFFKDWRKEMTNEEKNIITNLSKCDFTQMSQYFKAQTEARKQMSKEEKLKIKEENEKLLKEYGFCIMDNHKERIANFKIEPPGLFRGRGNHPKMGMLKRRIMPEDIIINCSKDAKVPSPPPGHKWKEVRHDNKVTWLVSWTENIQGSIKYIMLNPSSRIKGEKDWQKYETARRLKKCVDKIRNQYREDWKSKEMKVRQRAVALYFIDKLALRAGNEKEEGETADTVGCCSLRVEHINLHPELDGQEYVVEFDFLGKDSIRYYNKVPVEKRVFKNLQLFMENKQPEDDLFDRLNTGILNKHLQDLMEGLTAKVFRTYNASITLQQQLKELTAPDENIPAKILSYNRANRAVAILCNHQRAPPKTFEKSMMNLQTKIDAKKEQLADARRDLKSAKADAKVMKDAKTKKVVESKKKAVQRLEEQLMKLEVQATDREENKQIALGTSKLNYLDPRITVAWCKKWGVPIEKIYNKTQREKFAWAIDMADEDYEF
The experiment is described as follows: hTopo I relaxation assay. In kind it is biochemical. Also on record: key to Topoisomerase Inhibition hTopo I: (+) inhibition; (−) no inhibition; (+/−) partial inhibition. To be noted: 10 µM.
Source text: Thiazoles and their derivatives are extensively recognized as chemical nuclei of great interest for producing molecules with multiple biological properties. In particular, several compounds bearing these heterocycles were studied for their capability to interfere with DNA topoisomerases (Topos), ubiquitous enzymes essential in several key cellular processes. In recent years, these enzymes have become popular targets in cancer therapy; indeed, the topoisomerase inhibitors can induce damage to genome integrity. Consequently, the inhibition of topoisomerases leads to cell death by apoptosis and, thus, is fatal. Thus, we carried out two specific tests in vitro for both of the Topos, namely the hTopo I relaxation and the hTopo II decatenation assays. For the hTopo I relaxation assay, we exposed the enzyme to the most interesting compounds, 7b–7e, at the final concentration of 10 µM for 1 h at 37 °C, using as substrate the supercoiled pHOT1 (see Section 4 Materials and Methods for more details). […] Contrarily, in the CTRL lane, where the hTopo I was exposed to only vehicle (DMSO), several bands due to pHOT1 DNA cleavage were present (Figure 3, lane C). […] In Figure 3, panel B, the hTopo I inhibition results using ellipticine, as reference molecule are shown. […] An electrophoretic mobility shift of the pHOT1 DNA was also noticeable, due to the intercalating properties of ellipticine.
as §1
Figure 3 hTopo I relaxation assay. Plasmid pHOT1, used as substrate, was incubated with hTopo I with or without the studied compounds 7b–7e (10 µM concentration), panel (A), and with or without ellipticine (10 and 50 µM concentration), panel (B). Lane A, relaxed DNA marker; lane B, pHOT1 supercoiled DNA, lane C, CTRL (DMSO), lane D–G, compounds 7b–7e 10 µM, respectively. Lane 1, pHOT1 supercoiled DNA; lane 2, CTRL (DMSO), lanes 3–4, ellipticine 10 and 50 µM, respectively.

For experiment [1], the system named is MDA-MB-231 breast cancer cells. Briefly: MTT cell viability assay, MDA-MB-231. The experiment is classed as cell-based. To be noted: Homo sapiens, 72 h. As to the method:
All of the synthesized compounds (7a–f) were studied to test their anticancer activity toward the estrogen receptor-positive (ER+) MCF-7 and the triple-negative MDA-MB-231 breast cancer cells (ER-, PR- and HER-2/Neu not overexpressed) and A2058 melanoma cells. Cells were incubated for 72 h with different concentrations of the compounds, and then the viability was checked by the MTT assay. […] Moreover, we checked the cytotoxicity of all of the synthesized compounds against the human MCF-10A non-malignant breast epithelial cells and mouse BALB/3T3 embryonic fibroblasts, in order to evaluate their selectivity on cancer cells.
The used cell lines (breast cancer cell lines MCF-7 and MDA-MB-231, melanoma cell line A2058 and human mammary epithelial cell line MCF-10A) were obtained from American Type Culture Collection (ATCC, Manassas, VA, USA) and cultured as already reported. The mouse BALB/3T3 embryonic fibroblasts were also purchased from American Type Culture Collection (ATCC, Manassas, VA, USA) and cultured in DMEM high glucose supplemented with 10% bovine calf serum (BCS) and 100 U mL^−1 penicillin/streptomycin.
MTT assay (Sigma Aldrich (St. Louis, MO, USA)) was performed for evaluating the in vitro anticancer activities of the compounds, as previously indicated. Different concentrations (0.1, 1, 10, 25, 50, and 100 μM) of the compounds were employed, with a 72 h endpoint. IC50 values were obtained from the percent (%) of control using GraphPad Prism 9 (GraphPad Software, La Jolla, CA, USA).
For orientation: Formazan colour is commonly taken as a measure of viable cells.

T1 sequence (P11388 whole entry): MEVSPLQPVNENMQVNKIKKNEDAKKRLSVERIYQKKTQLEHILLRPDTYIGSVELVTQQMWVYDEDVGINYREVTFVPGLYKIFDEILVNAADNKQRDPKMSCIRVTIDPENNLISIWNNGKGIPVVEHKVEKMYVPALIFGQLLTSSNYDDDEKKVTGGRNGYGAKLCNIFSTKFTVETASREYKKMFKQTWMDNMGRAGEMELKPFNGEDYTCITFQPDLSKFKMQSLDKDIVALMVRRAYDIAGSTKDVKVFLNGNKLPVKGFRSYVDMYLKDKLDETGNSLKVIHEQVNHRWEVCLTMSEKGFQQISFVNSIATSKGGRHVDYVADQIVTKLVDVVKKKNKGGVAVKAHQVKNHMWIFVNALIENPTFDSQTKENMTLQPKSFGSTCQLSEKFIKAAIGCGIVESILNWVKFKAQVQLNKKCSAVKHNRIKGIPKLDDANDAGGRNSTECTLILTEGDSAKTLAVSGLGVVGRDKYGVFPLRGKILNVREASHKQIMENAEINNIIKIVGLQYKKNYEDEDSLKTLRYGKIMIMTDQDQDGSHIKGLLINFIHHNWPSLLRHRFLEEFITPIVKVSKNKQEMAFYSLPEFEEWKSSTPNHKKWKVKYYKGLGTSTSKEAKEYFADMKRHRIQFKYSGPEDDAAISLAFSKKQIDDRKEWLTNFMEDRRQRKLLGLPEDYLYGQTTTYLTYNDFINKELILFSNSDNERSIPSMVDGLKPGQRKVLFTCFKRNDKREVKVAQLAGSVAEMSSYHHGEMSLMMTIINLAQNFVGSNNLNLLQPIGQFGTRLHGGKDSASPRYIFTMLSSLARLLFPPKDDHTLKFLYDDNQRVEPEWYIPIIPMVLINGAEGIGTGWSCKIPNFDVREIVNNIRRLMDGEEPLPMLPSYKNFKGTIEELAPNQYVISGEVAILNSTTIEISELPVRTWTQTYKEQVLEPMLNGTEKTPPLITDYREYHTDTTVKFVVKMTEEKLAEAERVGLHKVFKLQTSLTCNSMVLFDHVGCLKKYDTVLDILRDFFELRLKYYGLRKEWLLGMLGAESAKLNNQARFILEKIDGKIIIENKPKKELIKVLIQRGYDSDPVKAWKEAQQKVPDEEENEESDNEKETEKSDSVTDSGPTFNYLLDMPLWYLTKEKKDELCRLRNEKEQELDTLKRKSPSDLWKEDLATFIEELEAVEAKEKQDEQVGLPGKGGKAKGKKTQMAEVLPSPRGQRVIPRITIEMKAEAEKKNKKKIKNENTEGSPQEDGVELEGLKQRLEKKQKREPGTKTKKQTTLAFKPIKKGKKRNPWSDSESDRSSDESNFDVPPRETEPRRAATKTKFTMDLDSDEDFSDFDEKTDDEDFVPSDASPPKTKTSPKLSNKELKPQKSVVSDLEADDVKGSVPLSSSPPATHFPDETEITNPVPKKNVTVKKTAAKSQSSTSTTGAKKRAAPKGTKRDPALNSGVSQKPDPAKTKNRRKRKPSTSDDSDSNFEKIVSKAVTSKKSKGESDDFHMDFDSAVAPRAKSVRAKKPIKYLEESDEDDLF

As usually defined, the IC50 is the concentration needed to halve the response being measured. With `COc1cc(/C=C2\SC(=O)N(CC(=O)Nc3nc(-c4ccc(Br)cc4)cs3)C2=O)cc(OC)c1OC` [compound 7e, (Z)-2-(5-(3,4,5-Trimethoxybenzylidene)thiazolidin-2,4-dion-3-yl)-N-(4-(4-bromophenyl)thiazol-2-yl)acetamide], the “Topoisomerase Inhibition hTopo II” value is “−” on hTopo II (10 µM) and “+” on hTopo II (50 µM). For the same molecule, at hTopo I, the “Topoisomerase Inhibition hTopo I” value was “−”. In addition, on hTopo I (1 h, 37 °C, supercoiled pHOT1), the “hTopo I activity inhibition (in words)” value is “able to inhibit hTopo I activity”. This molecule gave an IC50 in experiment [1] of 41.2 ± 0.9 µM.
